Results as given in patent US11345712B2, “Protein-targeting compounds and pharmaceutical compositions thereof, and their therapeutic applications” (BioTheryX, Inc., priority 2019, dated 2022).

Each compound was assayed on MOLM-13 cells (assay: MOLM-13 cell viability assay (CellTiter-Glo)). Conditions: 3 days, concentration of 1 μM.
Assay type: cell-based
In short: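 Luminescent ATP read-out (CellTiter-Glo, 10 min with shaking) after 3-day compound or DMSO exposure at 37° C, 5% CO2. Cells plated at 2,500/well in RPMI 1640 plus 10% FBS.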
CC(C)(C)c1ccc(C(=O)C(=O)NCc2cc3c(s2)C(=O)N(C2CCC(=O)NC2=O)C3)cc1 (centres unmarked) [Compound I-35, 2-(4-(tert-butyl)phenyl)-N-((5-(2,6-dioxopiperidin-3-yl)-6-oxo-5,6-dihydro-4H-thieno[2,3-c]pyrrol-2-yl)methyl)-2-oxoacetamide] was tested, and the “Antiproliferative Activity (inhibition, MOLM-13 cell viability)” value was “D (a value less than 25% inhibition)”.

Same assay, conditions: Homo sapiens, MOLM-13, 72 h, 3 days, concentration of 1 μM, read-out: Antiproliferative Activity (inhibition, MOLM-13 cell viability)
CCN(C)c1cc(NC(=O)NCc2cc3c(s2)C(=O)N(C2CCC(=O)NC2=O)C3)ccc1C (centres unmarked) [II-100, 1-((5-(2,6-dioxopiperidin-3-yl)-6-oxo-5,6-dihydro-4H-thieno[2,3-c]pyrrol-2-yl)methyl)-3-(3-(ethyl(methyl)amino)-4-methylphenyl)urea] gave a cytotoxicity at 1 µM greater than 80%.
CN(C)Cc1cccc(NC(=O)NCc2cc3c(s2)C(=O)N(C2CCC(=O)NC2=O)C3)c1 (centres unmarked) [II-53, 1-(3-((dimethylamino)methyl)phenyl)-3-((5-(2,6-dioxopiperidin-3-yl)-6-oxo-5,6-dihydro-4H-thieno[2,3-c]pyrrol-2-yl)methyl)urea] gave a cytotoxicity at 1 µM of less than 25%.
For CC(C)(C)c1cccc(C(=O)C(=O)NCc2ccc3c(c2)CN(C2CCC(=O)NC2=O)C3=O)c1 (centres unmarked) [Compound I-33, 2-(3-(tert-butyl)phenyl)-N-((2-(2,6-dioxopiperidin-3-yl)-1-oxoisoindolin-5-yl)methyl)-2-oxoacetamide], the cytotoxicity at 1 µM was greater than 80%.
With CC(C)(C)c1ccc(CCCC(=O)NCc2scc3c2CN(C2CCC(=O)NC2=O)C3=O)cc1 (centres unmarked) [II-84, 4-(4-(tert-butyl)phenyl)-N-((5-(2,6-dioxopiperidin-3-yl)-4-oxo-5,6-dihydro-4H-thieno[3,4-c]pyrrol-1-yl)methyl)butanamide] the cytotoxicity at 1 µM was less than 25%.
Work on CCC(C)c1ccc(C(=O)C(=O)NCc2scc3c2CN(C2CCC(=O)NC2=O)C3=O)cc1 (centres unmarked) [Compound I-15, 2-(4-(sec-butyl)phenyl)-N-((5-(2,6-dioxopiperidin-3-yl)-4-oxo-5,6-dihydro-4H-thieno[3,4-c]pyrrol-1-yl)methyl)-2-oxoacetamide] yielded a cytotoxicity at 1 µM of 25 to 50%.
O=C(CCCc1ccc(N2CCOCC2)cc1)NCc1scc2c1CN(C1CCC(=O)NC1=O)C2=O (centres unmarked) [II-146, N-((5-(2,6-dioxopiperidin-3-yl)-4-oxo-5,6-dihydro-4H-thieno[3,4-c]pyrrol-1-yl)methyl)-4-(4-morpholinophenyl)butanamide] was tested, and the cytotoxicity at 1 µM was less than 25%.
O=C1CCC(N2Cc3c(csc3CNC(=O)C(=O)c3cccs3)C2=O)C(=O)N1 (centres unmarked) [Compound I-9, N-((5-(2,6-dioxopiperidin-3-yl)-4-oxo-5,6-dihydro-4H-thieno[3,4-c]pyrrol-1-yl)methyl)-2-(thiophen-2-yl)-2-oxoacetamide] was tested, and the cytotoxicity at 1 µM was less than 25%.
O=C1CCC(N2Cc3c(CNC(=O)C(=O)c4ccc(F)cc4)cccc3C2=O)C(=O)N1 (centres unmarked) [Compound I-81, 2-(4-fluorophenyl)-N-((2-(2,6-dioxopiperidin-3-yl)-1-oxoisoindolin-4-yl)methyl)-2-oxoacetamide] was tested, and the cytotoxicity at 1 µM was 25 to 50%.
Compound COc1cccc(C(=O)C(=O)NCc2ccc3c(c2)CN(C2CCC(=O)NC2=O)C3=O)c1 (centres unmarked) [Compound I-95, N-((2-(2,6-dioxopiperidin-3-yl)-1-oxoisoindolin-5-yl)methyl)-2-(3-methoxyphenyl)-2-oxoacetamide] has a cytotoxicity at 1 µM greater than 80%.
Cc1ccc(C=CC(=O)NCc2scc3c2CN(C2CCC(=O)NC2=O)C3=O)cc1Cl (centres unmarked) [II-34, 3-(3-chloro-4-methylphenyl)-N-((5-(2,6-dioxopiperidin-3-yl)-4-oxo-5,6-dihydro-4H-thieno[3,4-c]pyrrol-1-yl)methyl)propenamide] showed a cytotoxicity at 1 µM greater than 80%.
In the case of CC1CCC(CC(=O)NCc2scc3c2CN(C2CCC(=O)NC2=O)C3=O)CC1 (centres unmarked) [II-75, N-((5-(2,6-dioxopiperidin-3-yl)-4-oxo-5,6-dihydro-4H-thieno[3,4-c]pyrrol-1-yl)methyl)-2-(4-methylcyclohexyl)acetamide], the cytotoxicity at 1 µM is reported as less than 25%.
CCN(CC)c1cc(NC(=O)NCc2cc3c(s2)C(=O)N(C2CCC(=O)NC2=O)C3)ccc1F (centres unmarked) [II-97, 1-(3-(diethylamino)-4-fluorophenyl)-3-((5-(2,6-dioxopiperidin-3-yl)-6-oxo-5,6-dihydro-4H-thieno[2,3-c]pyrrol-2-yl)methyl)urea] showed a cytotoxicity at 1 µM greater than 80%.
Work on CC(C)N(C)c1cccc(NC(=O)NCc2cc3c(s2)C(=O)N(C2CCC(=O)NC2=O)C3)c1 (centres unmarked) [II-56, 1-((5-(2,6-dioxopiperidin-3-yl)-6-oxo-5,6-dihydro-4H-thieno[2,3-c]pyrrol-2-yl)methyl)-3-(3-(isopropyl(methyl)amino)phenyl)urea] yielded a cytotoxicity at 1 µM greater than 80%.
Cc1ccc(NC(=O)NCCc2scc3c2CN(C2CCC(=O)NC2=O)C3=O)cc1Cl (centres unmarked) [II-31, 1-(3-chloro-4-methylphenyl)-3-(2-(5-(2,6-dioxopiperidin-3-yl)-4-oxo-5,6-dihydro-4H-thieno[3,4-c]pyrrol-1-yl)ethyl)urea] showed a cytotoxicity at 1 µM greater than 80%.
Compound CC(C)c1ccc(C(=O)C(=O)NCc2scc3c2CN(C2CCC(=O)NC2=O)C3=O)cc1 (centres unmarked) [Compound I-14, 2-(4-isopropylphenyl)-N-((5-(2,6-dioxopiperidin-3-yl)-4-oxo-5,6-dihydro-4H-thieno[3,4-c]pyrrol-1-yl)methyl)-2-oxoacetamide] has a cytotoxicity at 1 µM of 25 to 50%.
With Cc1ccc(NC(=O)NCc2cc3c(s2)C(=O)N([C@@H]2CCC(=O)NC2=O)C3)cc1Cl [II-91, (R)-1-(3-chloro-4-methylphenyl)-3-((5-(2,6-dioxopiperidin-3-yl)-6-oxo-5,6-dihydro-4H-thieno[2,3-c]pyrrol-2-yl)methyl)urea] the cytotoxicity at 1 µM was greater than 80%.
Compound O=C1CCC(N2Cc3cc(CNC(=O)C(=O)c4cccc(Cl)c4)ccc3C2=O)C(=O)N1 (centres unmarked) [Compound I-91, 2-(3-chlorophenyl)-N-((2-(2,6-dioxopiperidin-3-yl)-1-oxoisoindolin-5-yl)methyl)-2-oxoacetamide] has a cytotoxicity at 1 µM greater than 80%.
Cc1ccc(CS(=O)(=O)NCc2scc3c2CN(C2CCC(=O)NC2=O)C3=O)cc1Cl (centres unmarked) [II-69, 1-(3-chloro-4-methylphenyl)-N-((5-(2,6-dioxopiperidin-3-yl)-4-oxo-5,6-dihydro-4H-thieno[3,4-c]pyrrol-1-yl)methyl)methanesulfonamide] showed a cytotoxicity at 1 µM of 50 to 80%.
With Cc1cc(NC(=O)NCc2cc3c(s2)C(=O)N(C2CCC(=O)NC2=O)C3)cc(N(C)C)c1 (centres unmarked) [II-49, 1-(3-(dimethylamino)-5-methylphenyl)-3-((5-(2,6-dioxopiperidin-3-yl)-6-oxo-5,6-dihydro-4H-thieno[2,3-c]pyrrol-2-yl)methyl)urea] the cytotoxicity at 1 µM was greater than 80%.
Work on CN(Cc1ccc2c(c1)CN(C1CCC(=O)NC1=O)C2=O)C(=O)C(=O)c1ccc(C(C)(C)C)cc1 (centres unmarked) [Compound I-34, 2-(4-(tert-butyl)phenyl)-N-((2-(2,6-dioxopiperidin-3-yl)-1-oxoisoindolin-5-yl)methyl)-N-methyl-2-oxoacetamide] yielded a cytotoxicity at 1 µM of less than 25%.
With COc1cc(OC)c(C(=O)C(=O)NCc2ccc3c(c2)CN(C2CCC(=O)NC2=O)C3=O)c(OC)c1 (centres unmarked) [Compound I-84, N-((2-(2,6-dioxopiperidin-3-yl)-1-oxoisoindolin-5-yl)methyl)-2-oxo-2-(2,4,6-trimethoxyphenyl)acetamide] the cytotoxicity at 1 µM was 25 to 50%.
CCCOc1ccc(C(N)C(=O)NCc2scc3c2CN(C2CCC(=O)NC2=O)C3=O)cc1 (centres unmarked) [II-112, 2-amino-N-((5-(2,6-dioxopiperidin-3-yl)-4-oxo-5,6-dihydro-4H-thieno[3,4-c]pyrrol-1-yl)methyl)-2-(4-propoxyphenyl)acetamide] showed a cytotoxicity at 1 µM of less than 25%.
